Results as given in ChEMBL document CHEMBL1201862, “PubChem BioAssay data set” (2004).
Activity calls are given as the source filed them.

Key:
Protein skinhead-1 = target: T1, Protein skinhead-1 (Caenorhabditis elegans, UniProt P34707); type: functional
T1 sequence (P34707 whole entry): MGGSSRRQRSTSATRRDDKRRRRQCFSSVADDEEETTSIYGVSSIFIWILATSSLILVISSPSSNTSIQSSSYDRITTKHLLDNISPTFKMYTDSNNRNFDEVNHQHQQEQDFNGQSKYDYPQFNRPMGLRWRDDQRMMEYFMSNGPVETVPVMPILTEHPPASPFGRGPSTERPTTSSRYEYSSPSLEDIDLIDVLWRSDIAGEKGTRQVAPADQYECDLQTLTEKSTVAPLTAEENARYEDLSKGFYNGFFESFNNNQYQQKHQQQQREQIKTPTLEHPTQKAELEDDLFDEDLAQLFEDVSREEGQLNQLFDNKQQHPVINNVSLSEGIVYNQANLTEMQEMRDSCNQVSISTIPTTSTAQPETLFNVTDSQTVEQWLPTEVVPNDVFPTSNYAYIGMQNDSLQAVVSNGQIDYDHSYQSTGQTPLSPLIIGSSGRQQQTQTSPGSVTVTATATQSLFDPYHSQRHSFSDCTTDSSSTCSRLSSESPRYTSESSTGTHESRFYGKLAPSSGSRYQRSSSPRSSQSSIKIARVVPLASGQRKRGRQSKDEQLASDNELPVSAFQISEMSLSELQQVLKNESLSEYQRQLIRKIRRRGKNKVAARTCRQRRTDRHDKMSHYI

[1] = target: T2, Heat shock factor protein 1 (Mus musculus, UniProt P38532); assay: inhibition of MG132-induced HSE-luciferase signal, confirmation, cell-based, NIH3T3, luminescence, dose retest (AID 2382); type: functional;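 also: NIH3T3 fibroblasts with HSF1-driven luciferase reporter stressed by proteasome inhibitor MG132; luminescence from HSF1-driven luciferase expression after 8 hours of MG132 stress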
T2 sequence (P38532 whole entry): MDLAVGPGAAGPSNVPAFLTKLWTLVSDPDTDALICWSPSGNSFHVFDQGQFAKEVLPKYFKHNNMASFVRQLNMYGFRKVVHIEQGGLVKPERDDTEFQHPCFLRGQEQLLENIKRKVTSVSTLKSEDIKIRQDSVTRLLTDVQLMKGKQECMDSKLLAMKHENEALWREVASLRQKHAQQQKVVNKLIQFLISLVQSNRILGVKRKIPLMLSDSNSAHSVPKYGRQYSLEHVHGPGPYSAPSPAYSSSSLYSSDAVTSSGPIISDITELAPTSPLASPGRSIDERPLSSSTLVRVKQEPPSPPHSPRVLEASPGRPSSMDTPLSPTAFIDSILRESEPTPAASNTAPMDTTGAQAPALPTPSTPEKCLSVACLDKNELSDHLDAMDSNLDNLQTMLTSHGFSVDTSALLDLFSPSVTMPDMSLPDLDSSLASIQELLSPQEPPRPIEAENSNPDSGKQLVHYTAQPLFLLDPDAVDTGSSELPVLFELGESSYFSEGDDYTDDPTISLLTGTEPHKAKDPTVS

cells = type: functional
[2] = target: Glucose-6-phosphate 1-dehydrogenase (Homo sapiens, UniProt P11413); assay: human G6PD enzyme inhibitors, dose response, selectivity assay for P. falciparum G6PD inhibitor project, biochemical, fluorescence (AID 504792); type: functional
[3] = target: T3, RNA-binding protein pos-1 (Caenorhabditis elegans, UniProt G5EF15); assay: inhibitors of POS-1/mex-3 RNA binding, dose response, biochemical, fluorescence polarization (AID 1964);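 also: purified POS-1 fused to maltose binding protein made in E. coli; potency of compounds blocking POS-1 binding to fluorescent RNA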
T3 sequence (G5EF15 whole entry): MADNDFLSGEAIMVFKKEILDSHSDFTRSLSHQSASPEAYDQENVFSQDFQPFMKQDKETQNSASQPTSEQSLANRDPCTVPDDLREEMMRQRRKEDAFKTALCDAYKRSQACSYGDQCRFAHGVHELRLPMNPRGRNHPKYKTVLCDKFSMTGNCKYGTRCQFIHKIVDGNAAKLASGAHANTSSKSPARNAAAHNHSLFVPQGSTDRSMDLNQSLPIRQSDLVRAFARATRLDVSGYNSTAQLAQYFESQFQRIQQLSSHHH

[4] = target: T4, Zinc finger protein mex-5 (Caenorhabditis elegans, UniProt Q9XUB2); assay: MEX-5/TCR-2 RNA interaction inhibitors, dose response, biochemical, C. elegans, fluorescence polarization (AID 1960)
T4 sequence (Q9XUB2 whole entry): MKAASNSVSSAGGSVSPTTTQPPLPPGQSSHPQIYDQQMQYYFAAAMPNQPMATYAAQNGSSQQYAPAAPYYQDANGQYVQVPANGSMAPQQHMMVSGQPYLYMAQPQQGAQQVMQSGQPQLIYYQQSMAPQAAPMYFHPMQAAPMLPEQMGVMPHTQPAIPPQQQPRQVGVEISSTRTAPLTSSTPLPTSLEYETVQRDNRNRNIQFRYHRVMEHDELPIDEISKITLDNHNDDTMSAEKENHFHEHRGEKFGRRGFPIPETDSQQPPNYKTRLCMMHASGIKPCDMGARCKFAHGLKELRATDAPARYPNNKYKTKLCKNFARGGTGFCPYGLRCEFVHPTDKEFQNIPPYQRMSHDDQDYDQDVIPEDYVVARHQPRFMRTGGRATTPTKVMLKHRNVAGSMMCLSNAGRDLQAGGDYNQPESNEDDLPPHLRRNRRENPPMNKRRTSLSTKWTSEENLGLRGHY

[5] = C. albicans growth with fluconazole, confirmation, fluorescence, retest (AID 2467); type: functional, cell-based
[6] = NIH-3T3 fibroblast cytotoxicity, dose response, cytotoxicity control, cell-based, fluorescence, Alamar Blue, secondary assay (AID 2327); type: functional;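 also: NIH-3T3 mouse fibroblasts cultured with fluconazole at 8 µg/mL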
Genome polyprotein = Genome polyprotein (dengue virus type 2, UniProt P29990); assay: Dengue-2 NS5 methyltransferase inhibitors, primary screen, biochemical, confirmation dose response (AID 588689); type: functional
[7] = target: T5, Carboxy-terminal domain RNA polymerase II polypeptide A small phosphatase 1 (Homo sapiens, UniProt Q9GZU7); assay: inhibitors of CTDSP1, concentration-response testing, biochemical assay, absorbance-based, actives from ultra-high-throughput screening (AID 540297); type: functional
T5 sequence (Q9GZU7 whole entry): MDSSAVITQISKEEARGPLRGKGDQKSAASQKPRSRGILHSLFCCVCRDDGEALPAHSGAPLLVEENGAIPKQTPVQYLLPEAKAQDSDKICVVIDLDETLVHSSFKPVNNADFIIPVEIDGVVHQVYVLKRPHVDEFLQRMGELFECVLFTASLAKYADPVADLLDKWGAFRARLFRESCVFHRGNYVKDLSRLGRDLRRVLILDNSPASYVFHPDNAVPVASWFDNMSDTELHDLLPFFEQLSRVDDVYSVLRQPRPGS

BJ [8] = assay: cells; type: functional, cell-based; conditions: Homo sapiens
[9] = target: T2, Heat shock factor protein 1; assay: HSF1 potentiators in luciferase reporter cells, confirmation, cell-based, NIH3T3, luminescence, dose retest (AID 435004); type: functional;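 also: stress induced by proteasome inhibitor MG132 added 30 min after compound; luciferase reporter driven by HSF1 response element in NIH3T3 cells; actives raise luminescence as potentiators of the MG132 stress response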
[10] = cytotoxicity toward DRD oncogenic fibroblasts, dose response, cell-based, non-viral oncogenic, luminescence (AID 1934); type: functional; conditions: Homo sapiens
BJ [11] = assay: cytotoxicity toward BJ-TERT fibroblasts, dose response, cell-based, RAS-independent, luminescence (AID 1933); type: functional; conditions: Homo sapiens
BJ [12] = assay: cytotoxicity toward BJ-TERT-LT-ST fibroblasts, dose response, cell-based, RAS-independent, luminescence (AID 1935); type: functional; conditions: Homo sapiens;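 also: BJ fibroblasts immortalized with TERT plus LT and ST oncogenes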
[13] = target: T6, Rac GTPase-activating protein 1 (Homo sapiens, UniProt Q9H0H5); assay: MgcRacGAP GTPase-activating activity inhibitors, confirmation, biochemical, ADP Hunter fluorescence, primary and confirmatory (AID 624330); type: functional
T6 sequence (Q9H0H5 whole entry): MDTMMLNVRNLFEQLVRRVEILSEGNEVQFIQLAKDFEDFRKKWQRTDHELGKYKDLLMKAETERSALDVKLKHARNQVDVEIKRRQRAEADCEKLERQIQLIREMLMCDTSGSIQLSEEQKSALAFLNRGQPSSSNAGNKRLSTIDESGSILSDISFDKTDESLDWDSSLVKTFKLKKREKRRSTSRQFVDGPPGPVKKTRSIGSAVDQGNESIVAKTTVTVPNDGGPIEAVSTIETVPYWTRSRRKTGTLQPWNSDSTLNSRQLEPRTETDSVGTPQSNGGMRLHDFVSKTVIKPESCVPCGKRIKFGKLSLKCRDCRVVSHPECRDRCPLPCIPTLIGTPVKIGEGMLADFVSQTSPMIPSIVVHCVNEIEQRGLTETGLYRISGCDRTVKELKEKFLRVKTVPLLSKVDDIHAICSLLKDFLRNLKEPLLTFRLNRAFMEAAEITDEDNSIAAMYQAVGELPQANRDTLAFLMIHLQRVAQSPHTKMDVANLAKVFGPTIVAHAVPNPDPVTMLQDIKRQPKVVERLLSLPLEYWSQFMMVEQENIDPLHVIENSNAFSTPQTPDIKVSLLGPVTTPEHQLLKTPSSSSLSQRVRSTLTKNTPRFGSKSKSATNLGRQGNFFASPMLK

INS1 = assay: beta cell apoptosis inhibitors, cytokine rescue, dose response, luminescence, retest (AID 449756); type: functional, cell-based; conditions: Rattus norvegicus, INS1;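 also: cell death triggered by IL-1 beta plus TNF-alpha plus IFN-gamma mixture; protective hits raise ATP signal compared with cytokine alone wells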
[14] = HEp-2 cell cytotoxicity, dose response, cytotoxicity control for RSV inhibitor project, HTS (AID 2410); type: functional; conditions: human respiratory syncytial virus
[15] = P. falciparum Dd2 growth inhibitors, dose response, SYBR Green, cherry-picked samples (AID 1159567); type: functional, cell-based

Sequence of Genome polyprotein (P29990 2492-3391 limits assumed): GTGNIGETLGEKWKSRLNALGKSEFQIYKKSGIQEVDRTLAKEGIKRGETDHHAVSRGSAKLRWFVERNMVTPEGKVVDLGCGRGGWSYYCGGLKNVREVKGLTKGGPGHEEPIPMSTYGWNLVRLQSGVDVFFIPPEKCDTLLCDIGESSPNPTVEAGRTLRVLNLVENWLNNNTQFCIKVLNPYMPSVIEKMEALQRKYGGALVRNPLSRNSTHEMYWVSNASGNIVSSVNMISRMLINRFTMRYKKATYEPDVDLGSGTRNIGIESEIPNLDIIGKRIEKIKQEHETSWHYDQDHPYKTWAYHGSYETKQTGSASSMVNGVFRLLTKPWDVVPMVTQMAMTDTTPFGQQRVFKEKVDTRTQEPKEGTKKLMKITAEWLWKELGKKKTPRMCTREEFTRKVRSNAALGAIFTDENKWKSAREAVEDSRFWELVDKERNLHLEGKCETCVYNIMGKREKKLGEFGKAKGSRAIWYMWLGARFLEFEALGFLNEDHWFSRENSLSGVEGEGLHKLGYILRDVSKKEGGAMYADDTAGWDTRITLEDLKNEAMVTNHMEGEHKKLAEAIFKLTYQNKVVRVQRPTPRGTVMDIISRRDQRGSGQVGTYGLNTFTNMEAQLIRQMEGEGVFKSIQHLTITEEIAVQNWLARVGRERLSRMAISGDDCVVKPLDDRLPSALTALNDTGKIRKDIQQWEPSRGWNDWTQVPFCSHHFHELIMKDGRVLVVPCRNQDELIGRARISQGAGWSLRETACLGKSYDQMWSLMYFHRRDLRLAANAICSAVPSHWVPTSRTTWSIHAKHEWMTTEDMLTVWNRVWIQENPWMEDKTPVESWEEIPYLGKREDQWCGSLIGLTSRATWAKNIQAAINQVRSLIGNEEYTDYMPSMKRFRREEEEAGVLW
Sequence of Glucose-6-phosphate 1-dehydrogenase (P11413 whole entry, the tested form may be a part): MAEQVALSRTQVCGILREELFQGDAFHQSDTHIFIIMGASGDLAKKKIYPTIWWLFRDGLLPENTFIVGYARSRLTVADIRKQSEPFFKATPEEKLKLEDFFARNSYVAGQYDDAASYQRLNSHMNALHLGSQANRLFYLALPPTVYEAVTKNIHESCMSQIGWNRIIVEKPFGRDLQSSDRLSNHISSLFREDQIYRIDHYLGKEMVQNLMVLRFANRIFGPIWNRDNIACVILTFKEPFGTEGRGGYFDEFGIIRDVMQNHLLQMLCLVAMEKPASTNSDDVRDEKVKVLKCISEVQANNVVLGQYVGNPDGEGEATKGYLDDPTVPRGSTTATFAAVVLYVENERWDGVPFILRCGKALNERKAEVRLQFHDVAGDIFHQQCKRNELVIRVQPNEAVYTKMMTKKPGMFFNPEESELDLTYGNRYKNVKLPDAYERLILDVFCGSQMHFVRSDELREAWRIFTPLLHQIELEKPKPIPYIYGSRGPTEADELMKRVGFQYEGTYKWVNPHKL

c1ccc(OCCSc2nc3ccccc3o2)cc1
IC50 (Protein skinhead-1): 32.4 µM (active)
EC50 [1]: > 195 µM (not active)

Cc1ccc(OC(=O)c2sc3ncn(C)c(=O)c3c2C)cc1
IC50 (cells): 15.2 µM (active)

CCCCC(=O)NCc1ccc2c(c1)cc(C)n2C
IC50 (Protein skinhead-1): > 100 µM (inactive)

Cc1cc(C(=O)O)ccc1-n1c(C)cc(C=C2C(=O)c3ccccc3C2=O)c1C
IC50 [2]: > 80 µM (inactive)
EC50 [3]: > 300 µM (not active)
EC50 [4]: > 300 µM (not active)

Cc1ccc(C(=O)CC(=O)COc2ccc(Cl)cc2)cc1
EC50 [5]: 1.62 µM (active)
EC50 [6]: > 150 µM (inconclusive)

O=C(Nc1ccccc1)Nc1csc2ccccc12
IC50 (Protein skinhead-1): > 100 µM (inactive)

O=C(O)c1ccc2c(c1Nc1ccccc1)C(=O)c1ccccc1C2=O
IC50 (Genome polyprotein): > 100 µM (active)

O=C(Nc1cccc(S(=O)(=O)NC2=NCCCCC2)c1)C1COc2ccccc2O1 (stereo not drawn)
IC50 [7]: 5.75 µM (active)

O=C1/C(=C/c2ccccc2Cl)SC(=S)N1CCC(=O)N1CCCCC1CCO (stereo not drawn)
EC50 (BJ [8]): > 150 µM (inconclusive)
EC50 [9]: > 260 µM (inactive)
EC50 [10]: 45.3 µM (active)
EC50 (BJ [11]): 19 µM (active)
EC50 (BJ [12]): > 150 µM (not active)

O=C(NN=Cc1cc(Br)c(O)c(Br)c1)c1ccccc1NS(=O)(=O)c1cccs1
IC50 (Genome polyprotein): 27.7 µM (active)

CCn1c(COc2ccc(=O)n(-c3ccccc3)n2)nnc1SCc1cccc(OC)c1
EC50 [5]: > 38 µM (not active)
EC50 [6]: > 160 µM (inactive)

COc1ccc(C(O)(C(=O)NNc2ccc(C)cc2)c2cccs2)cc1 (stereo not drawn)
EC50 [9]: > 260 µM (inactive)
EC50 [5]: > 38 µM (not active)
EC50 [6]: > 160 µM (inactive)

O=c1[nH]c2ccc(NCc3ccccc3OCc3ccc(Cl)cc3)cc2[nH]1
IC50 [2]: > 80 µM (inactive)

CCOC(=O)C(C)On1c(-c2ccc(Cl)cc2)nc2ccc([N+](=O)[O-])cc21 (stereo not drawn)
IC50 (Protein skinhead-1): > 100 µM (inactive)

COc1cccc(C(=O)C2CCCN(Cc3cccc4c3OCO4)C2)c1 (stereo not drawn)
EC50 [5]: > 38 µM (not active)
EC50 [6]: > 160 µM (inactive)

CC(C)OP(=O)(c1ccc(N(C)C)cc1)C(O)c1ccccc1 (stereo not drawn)
EC50 [5]: 3.06 µM (active)
EC50 [6]: > 160 µM (inconclusive)

Cc1ccc(C(C2=C(O)CC(C)(C)CC2=O)C2C(=O)CC(C)(C)CC2=O)o1 (stereo not drawn)
IC50 (Genome polyprotein): 60 µM (active)
IC50 [13]: 56.4 µM (active)

Cc1ccc2nc(C)c3c(c2c1)SCC3
IC50 (cells): 24.6 µM (active)

C[N+]1(C)CC2([N+](=O)[O-])CC=C(Oc3ccccc3)C([N+](=O)[O-])(C2)C1 (stereo not drawn)
IC50 [7]: 6.82 µM (active)

CCOC(=O)N1CCC(N2Cc3cccc(C(=O)NCc4ccc5c(c4)OCO5)c3C2=O)CC1
IC50 [7]: 15 µM (active)

Cc1c(C(=O)NNC(=O)c2csc(N3CCOCC3)n2)oc2ccccc12
IC50 (cells): 13.2 µM (active)

COC(=O)COc1cccc(NC(=O)c2cccc(C)c2)c1
IC50 (cells): 17.6 µM (active)

O=S(=O)(c1ccc(F)cc1)n1ccc(-c2cccc(OCc3c(F)cccc3Cl)c2)n1
IC50 (Protein skinhead-1): > 100 µM (inactive)

N=c1oc2ccccc2cc1C(=O)NC1CCCCCC1
IC50 (cells): > 50 µM (active)

O=C1N=C(Nc2ccc(Cl)cc2)/C(=C/c2ccco2)S1
IC50 [7]: 1.86 µM (active)

O=C1/C(=C/c2cccs2)SC(=S)N1CC(=O)N1CCCCC1CCO (stereo not drawn)
IC50 (Protein skinhead-1): > 100 µM (inactive)

COc1cc(NCCCn2ccc(NC(=O)OCc3ccccc3)nc2=O)cc(OC)c1OC
IC50 [2]: > 80 µM (inactive)

CCN(CC)c1ccc(/N=C/c2ccc([N+](=O)[O-])o2)cc1
AC50 (INS1): 43.9 µM (active)
EC50 [5]: > 38 µM (not active)
EC50 [6]: > 150 µM (inactive)

Cc1ccc(NC(=O)COc2ccc(/C=N\NC(=O)c3cccnc3)cc2)cc1C
IC50 [7]: 10 µM (active)

CC(C)(C)C(=O)O/N=C1/C(=O)N(c2ccccc2)c2ccccc21
CC50 [14]: 26.5 µM (active)
IC50 [7]: 7.51 µM (active)

C/C(=N/Nc1ccc(C)cc1)C1(C)N(O)C(C)(C)C(c2ccco2)=[N+]1[O-] (stereo not drawn)
EC50 [5]: > 38 µM (not active)
EC50 [6]: 66.1 µM (inconclusive)

CCCC#Cc1ccc2c(c1)[C@@H]1[C@@H](CCN1S(=O)(=O)c1ccccc1C)[C@@H](CO)N2
AC50 [15]: 7.51 µM (active)

N#Cc1cccc(-c2ccc3c(c2)[C@@H]2[C@@H](CCN2Cc2cncnc2)[C@H](CO)N3)c1
AC50 [15]: 6.32 µM (active)

COc1cccc(CN2C[C@@H]3N[C@H](C2)[C@H]3c2ccc(-c3ccncc3)cc2)c1
AC50 [15]: 7.31 µM (active)

COc1ccccc1C#Cc1ccc([C@@H]2[C@H](C#N)N(C(=O)C3CCCC3)[C@H]2CO)cc1
AC50 [15]: 5.17 µM (active)
